Experimental data published in patent publication US9572816B2, “Method of treatment of disease” (TECHNION RESEARCH AND DEVELOPMENT FOUNDATION LTD., priority 2012, dated 2017).

How the values were obtained:
[1] = tested on: rat model of STZ-induced diabetes; test: Cataract by lens opacity (slit-lamp biomicroscope) in rat model of STZ-induced diabetes; assay type: in vivo, Sprague Dawley rats; settings: 7 weeks
Method: (§1) Eight to ten-week old male Sprague Dawley rats were used in the model. Rat handling was performed according to guidelines of the National Institute of Health (NIH) and the Association for Assessment and Accreditation of Laboratory Animal Care (AAALAC). Diabetes was induced by intraperitoneal injection of 50 mg/kilogram (mg/kg) STZ (in 0.1 molar citrate buffer), which is a dose generally sufficient to destroy all insulin-producing beta cells and induce a diabetic disease-like state. Two weeks later, glucose levels were measured and rats displaying a level lower than 200 mg per deciliter (dL) were excluded from the study. The remaining rats were randomly divided into 3 groups (according to body weight and serum glucose levels): a control group, a corrole group and an LPA group. Each group received a 7-week course of treatment. The control group (13 rats) received water with no active ingredient. The corrole group (14 rats) received 20 mg/kg/day of the corrole designated 1-Fe. 1-Fe was synthesized using the procedure described in Mahammed et al. (Mahammed, Goldberg, & Gross, 2001). […]
Cataract was evaluated a day before termination of the trial in live rats by measurement of opacities of the rat's lenses of each eye with a slit-lamp biomicroscope following the application of tropicamide eye drops. […]
A rat having a score in at least one eye of 1 or higher was considered to have developed a cataract. The percentage of rats in each group having a cataract (cataract incidence) as determined by opacity measurements for each group is shown in FIG. 1A. […]
The degree of cataract for both eyes as determined by averaging each group's cataract scoring of both eyes of each rat as determined by opacity measurement is shown in FIG. 1B.
As cataract may develop at a different rate in each of the animals' eyes, the degree of cataract for the rats' worse eye was evaluated. The degree of cataract for the rats' worse eye was determined by averaging each group's cataract scoring of each animal's worse eye as determined by opacity measurement, and is shown in FIG. 1C. […]

[2] = tested on: rat model of STZ-induced diabetes; test: Creatinine clearance rate (CrCl), kidney damage in rat model of STZ-induced diabetes; assay type: in vivo; settings: after 7 weeks of treatment
Method: as §1, with “treatment.” for “treatment. The control group (13 rats) received water with no active ingredient. The corrole group (14 rats) received 20 mg/kg/day of the corrole designated 1-Fe. 1-Fe was synthesized using the procedure described in Mahammed et al. (Mahammed, Goldberg, & Gross, 2001).”
A rat model was performed as in example 1, but rather than testing for eye damage, blood testing was used to test for creatinine levels. […] Creatinine clearance rate (CrCl), an established measure for evaluating renal function, was calculated for rats in all groups of the trial by dividing the amount of creatinine in the urine (mg/minute) by its concentration in the serum (mg/ml).
CrCl was measured: a) before induction of diabetes; b) 2 weeks later when the treatment commenced; and c) following 7 weeks of treatment (9 weeks from STZ injection).

[3] = tested on: rat model of STZ-induced diabetes; test: Cataractous damage by histological examination (H&E) of lenses in rat model of STZ-induced diabetes; assay type: in vivo, Sprague Dawley rats; settings: 7 weeks
Method: as §1, with “treatment.” for “treatment. The control group (13 rats) received water with no active ingredient. The corrole group (14 rats) received 20 mg/kg/day of the corrole designated 1-Fe. 1-Fe was synthesized using the procedure described in Mahammed et al. (Mahammed, Goldberg, & Gross, 2001).”
The development of cataractous damage was further evaluated by histological examination. […]
A rat having a score in at least one eye of 1 or higher was considered to have suffered a cataractous damage. The percentage of rats in each group having a cataractous damage (cataract damage incidence) as determined by histological examination of lenses for each group is shown in FIG. 1D.
The degree of cataractous damage for both eyes as determined by averaging each group's cataract scoring of both eyes of each rat as determined by histological examination is shown in FIG. 1E. […]

[4] = Body weight in rat model of STZ-induced diabetes; assay type: in vivo, Sprague Dawley rats; settings: STZ-diabetic rats, 7-week treatment
Method: as §1, with “2001). The LPA group (13 rats) received 50 mg/kg/day LPA. LPA was formulated for administration by dissolving in 1 millimolar sodium hydroxide (NaOH) which was then brought to a pH of 7.5.” for “2001).”

[5] = tested on: development of cataract; settings: clinical studies, reported in the literature; cited from earlier work
[6] = tested on: DN in a rat model; settings: administered in levels sufficient to be present in the kidney; cited from earlier work

**Q.** With `O=C(O)CCCCC1CCSS1` (stereo not drawn) [LPA, alpha lipoic acid] as the compound, how does the “Reduction in degree of cataract, both eyes (opacity score 0-4), relative to control group” value ([1]; 1-Fe 20 mg/kg/day (p=0.014), LPA 50 mg/kg/day (p=0.1)) read?
**A.** The value was 28%.

**Q.** And the “Degree of cataract in worse eye relative to control group (in words)” value ([1]; LPA 50 mg/kg/day)?
**A.** The value was “not significantly reduced”.

**Q.** What about the “Effect on cataract incidence (opacity measurement)” value ([1]; relative to control group, LPA 50 mg/kg/day) of the same compound?
**A.** Its value is “did not have a significant effect”.

**Q.** And the CrCl ([2]; STZ-diabetic rats, 1-Fe 20 mg/kg/day, LPA 50 mg/kg/day)?
**A.** The CrCl was 1.36 mL/min.

**Q.** What about the “Increase in creatinine clearance relative to the control group” value ([2]; 1-Fe p=0.027, LPA p=0.078) of the same compound?
**A.** Its value is 89%.

**Q.** And the “Reduction in degree of cataractous damage, both eyes (histology score 0-4), relative to control group” value ([3]; 1-Fe 20 mg/kg/day, LPA 50 mg/kg/day)?
**A.** Its value is 32%.

**Q.** What about the “Cataract damage incidence by histological examination, relative to control group” value ([3]; corrole p=0.073) of the same compound?
**A.** The value was “minimal”.

**Q.** And the “Body weight change during the treatment phase” value [4]?
**A.** The value was “significant weight loss”.

**Q.** With `CC1=C(/C=C/C(C)=C/C=C/C(C)=C/C=C/C=C(C)/C=C/C=C(C)/C=C/C2=C(C)CCCC2(C)C)C(C)(C)CCC1` [beta-carotene] as the compound, how does the “Effect on the development of cataract” value [5] read?
**A.** The value was “no significant effect”.

**Q.** With `COc1cc(/C=C/C(=O)CC(=O)/C=C/c2ccc(O)c(OC)c2)ccc1O` [curcumin] as the compound, how does the “Treating DN in a rat model” value [6] read?
**A.** Its value is “not successful”.

**Q.** For `O=C1O[C@H]([C@@H](O)CO)C(O)=C1O` [vitamin C], which “Effect on the development of cataract” value [5] is on record?
**A.** The value was “no significant effect”.

**Q.** With vitamin E as the compound, how does the “Effect on the development of cataract” value [5] read?
**A.** Its value is “no significant effect”.
